Data as given in paper PMC6116705, “Design, synthesis, in vitro antiproliferative activity and apoptosis-inducing studies of 1-(3′,4′,5′-trimethoxyphenyl)-3-(2′-alkoxycarbonylindolyl)-2-propen-1-one derivatives obtained by a molecular hybridisation approach” (Journal of Enzyme Inhibition and Medicinal Chemistry, 2018).
Like-named read-outs stand apart in the source and are kept apart here.

What was measured:
[1] = test system: tubulin (colchicine site); test: Inhibition of [3H]colchicine binding to tubulin; design: species or system bovine; settings: tubulin 1 µM, [3H]colchicine 5 µM, compound 5 µM
Procedure: (§1) To evaluate the effect of the compounds on tubulin assembly in vitro[40], varying concentrations of compounds were preincubated with 10 μM bovine brain tubulin in 0.8M monosodium glutamate (pH adjusted to 6.6 with HCl in a 2.0M stock solution) at 30 °C and then cooled to 0 °C. After addition of 0.4 mM GTP, the mixtures were transferred to 0 °C cuvettes in a recording spectrophotometer and warmed to 30 °C. Tubulin assembly was followed turbidimetrically at 350 nm. […] The capacity of the test compounds to inhibit colchicine binding to tubulin was measured as described. The reaction mixtures contained 1 μM tubulin, 5 μM [^3H]colchicine and 5 μM test compound.

[2] = test system: human colon adenocarcinoma (HT29) cells; test: Antiproliferative assay, cell counting (Coulter Counter), HT29; assay type: cell-based; settings: for fold more potent than CA-4: HT29 cell line, ratio of IC50 values
Procedure: (§2) Human cervix carcinoma (HeLa), human colon carcinoma (HT29), human breast carcinoma (MCF-7) and human lymphoma (HL-60) cells (3–5 × 10^4 cells) and a serial (five-fold) dilution of the test compounds were added to a 96-well microtiter plate. The cells were incubated for 72–96 h (depending on the tumor cell line) at 37 °C in a humidified 5% CO2 atmosphere. At the end of the incubation period, the cells were counted in a Coulter Counter (Coulter Electronics Ltd, Harpenden Herts, UK). […] The IC50 values represent the average (±standard deviation) of at least two to four independent experiments.

bovine brain tubulin = test: Inhibition of tubulin polymerisation (turbidimetric tubulin assembly); assay type: biochemical; settings: for IC50: tubulin 10 µM, 20 min at 30 °C, read-out: Tubulin assembly IC50±SD
Procedure: as §1

[3] = test system: U-937 cells overexpressing human Bcl-2 (U-937/Bcl-2); test: MTT cytotoxicity assay, U-937/Bcl-2; assay type: cell-based; settings: U-937/Bcl-2, MTT, read-out: IC50, inhibition of cell growth
Procedure: U-937 (human myeloid leukaemia) cells from DSMZ (German Collection of Microorganisms and Cell Cultures, Braunschweig, Germany) and U-937 cells overexpressing human Bcl-2 protein (designated U-937/Bcl-2, donated by Dr Jacqueline Bréard, INSERM U749, Faculté de Pharmacie Paris-Sud., Châtenay-Malabry, France) were cultured in RPMI-1640 medium containing 10% (v/v) heat-inactivated foetal bovine serum, 100 μg/mL streptomycin and 100 U/mL penicillin, incubated at 37 °C in a humidified atmosphere containing 5% CO2 as described. The functioning of U-937/Bcl-2 cells was tested using the cytotoxic agent 1-β-D-arabino-furanosylcytosine as previously described. Human peripheral blood mononuclear cells (PBMC) were isolated from heparin-anticoagulated blood of healthy volunteers by centrifugation with Ficoll-Paque Plus (GE Healthcare Bio-Sciences AB, Uppsala, Sweden). PBMC were also stimulated with phytohemagglutinin (2 μg/mL) for 48 h before the experimental treatment. The trypan blue dye exclusion method was used for counting the living/dead cells by a hematocytometer with 95% viability in all experiments. The cytotoxicity of compounds was evaluated by the colorimetric 3-(4,5-dimethyl-2-thiazolyl-)-2,5-diphenyl-2H-tetrazolium bromide (MTT) assay as previously described. Briefly, 5 × 10^3 exponentially growing cells were seeded in 96-well microculture plates with increasing concentrations of compounds for 72 h. After the addition of MTT (0.5 mg/mL), cells were incubated at 37 °C for 4 h. Sodium dodecyl sulphate (10% w/v) in 0.05 M HCl was added to the wells and then incubated at room temperature overnight in the dark. Absorbance was measured at 570 nm. […] Values are mean ± SE from at least three independent experiments, each performed in triplicate. Compounds were dissolved in DMSO and kept in the dark at 25 °C.

[4] = test system: human breast adenocarcinoma (MCF-7) cells; test: Antiproliferative assay, cell counting (Coulter Counter), MCF-7; assay type: cell-based; settings: for fold more potent than CA-4: MCF-7 cells, ratio of IC50 values
Procedure: as §2

[5] = test system: human cervix carcinoma (HeLa) cells; test: Antiproliferative assay, cell counting (Coulter Counter), HeLa; assay type: cell-based; settings: 72–96 h, read-out: IC50, inhibition of proliferation
Procedure: as §2

| Compound | Colchicine binding % ±SD (inhibition) [1] | fold more potent than CA-4 [2] | IC50 (bovine brain tubulin) | IC50 ([3]; Homo sapiens, U-937, 72 h) | IC50 ([4]; Homo sapiens, MCF7, MCF-7, 72–96 h, read-out: IC50, inhibition of proliferation) | fold more potent than CA-4 [4] | IC50 ([2]; Homo sapiens, HT-29, HT29, 72–96 h, read-out: IC50, inhibition of proliferation) | IC50 ([5]; Homo sapiens) | fold less potent than CA-4 as inhibitor of tubulin polymerisation (bovine brain tubulin; ratio of tubulin assembly IC50 values) | IC50 ([3]; 72 h) | IC50 [5] |
| --- | --- | --- | --- | --- | --- | --- | --- | --- | --- | --- | --- |
| CCOC(=O)c1[nH]c2ccc(OC)cc2c1/C=C/C(=O)c1cc(OC)c(OC)c(OC)c1 [Compound 9d, (E)-Ethyl 5-methoxy-3-(3-oxo-3-(3,4,5-trimethoxyphenyl)prop-1-en-1-yl)-1H-indole-2-carboxylate] | 9.6 ± 2% | 8–24 fold | > 20 µM | 700 ± 200 nM | – | – | – | – | – | – | – |
| COC(=O)c1[nH]c2cc(OC)ccc2c1/C=C/C(=O)c1cc(OC)c(OC)c(OC)c1 [Compound 9e, (E)-Methyl 6-methoxy-3-(3-oxo-3-(3,4,5-trimethoxyphenyl)prop-1-en-1-yl)-1H-indole-2-carboxylate] | 29 ± 5% | 8–24 fold | 6.2 ± 0.6 µM | ~1000 nM | 170 ± 30 nM | 1.5–2 fold | 160 ± 20 nM | 370 ± 180 nM | 10 fold | 1100 ± 1000 nM | – |
| CCOC(=O)c1[nH]c2cc(OC)ccc2c1/C=C/C(=O)c1cc(OC)c(OC)c(OC)c1 [Compound 9f, (E)-Ethyl 6-methoxy-3-(3-oxo-3-(3,4,5-trimethoxyphenyl)prop-1-en-1-yl)-1H-indole-2-carboxylate] | 23 ± 1% | 8–24 fold | 17 ± 2 µM | 1000 ± 800 nM | – | 1.5–2 fold | – | < 1000 nM | – | – | 840 ± 390 nM |
